Measured values published in article PMC3731424 (Biochemistry, 2013).
Read-outs that look alike come from different tables or passages of the source.

Legend:
[1] = molecular target: T1, Actinomadura R39 DD-peptidase (Actinomadura sp., UniProt P39045); type: biochemical
B. subtilis PBP4a = B. subtilis PBP4a (Bacillus subtilis, UniProt P39844); assay: Inhibition of B. subtilis PBP4a, competition with substrate 14; type: biochemical
[2] = Hydration equilibrium of the carbonyl compounds in aqueous solution; type: physicochemical; conditions: from 1H NMR spectra
[3] = molecular target: T1, Actinomadura R39 DD-peptidase; type: biochemical; remark: listed apart in the source
[4] = literature estimate; cited from earlier work
[5] = cited from earlier work

T1 sequence (P39045 50-538): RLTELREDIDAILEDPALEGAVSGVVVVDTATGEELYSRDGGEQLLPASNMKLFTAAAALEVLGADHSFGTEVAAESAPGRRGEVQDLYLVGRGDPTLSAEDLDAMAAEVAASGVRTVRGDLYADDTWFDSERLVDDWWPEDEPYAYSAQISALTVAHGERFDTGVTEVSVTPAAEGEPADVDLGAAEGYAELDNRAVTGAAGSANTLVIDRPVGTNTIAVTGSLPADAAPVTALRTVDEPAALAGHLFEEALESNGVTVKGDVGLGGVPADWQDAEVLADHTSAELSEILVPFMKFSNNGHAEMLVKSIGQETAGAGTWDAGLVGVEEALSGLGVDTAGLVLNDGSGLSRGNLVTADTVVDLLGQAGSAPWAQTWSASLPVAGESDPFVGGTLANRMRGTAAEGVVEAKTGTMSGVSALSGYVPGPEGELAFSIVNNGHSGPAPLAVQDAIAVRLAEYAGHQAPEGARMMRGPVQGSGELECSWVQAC

## C[C@H](C=O)NC(=O)CCCC[C@@H](N)C(=O)O [Compound 11]
[1]
  Time dependence of inhibition, R39 DD-peptidase: No time dependence
B. subtilis PBP4a
  Time dependence of inhibition, PBP4a: No time dependence
[2]
  KH (hydration equilibrium constant [IOH2]/[I]): 30

## CC(NC(=O)CCCC[C@@H](N)C(=O)O)C(=O)C(F)(F)F (stereo partly drawn) [Compound 12, D-α-Aminopimelyl-(1,1,1-trifluoro-3-amino)butan-2-one]
[1]
  Ki: 370 nM
  Time dependence of inhibition, R39 DD-peptidase: No time dependence
B. subtilis PBP4a
  Ki: 13500 nM
  Time dependence of inhibition, PBP4a: No time dependence
[3]
  Ki: 170 nM

## C[C@@H](SC(=O)CNC(=O)Cc1ccccc1)C(=O)O [Compound 14, (Phenylacetyl)glycyl-D-thiolactate, reference compound]
B. subtilis PBP4a; read-out: Km of the substrate, PBP4a, 20 mM MOPS pH 7.50, 25 °C
  Km: 440 ± 80 µM

## CC(=O)C(F)(F)F [trifluoroacetone]
[4]
  KH, lower limit estimate: ≥ 35

## OCC(F)(F)F [trifluoroethanol]
[5]
  pKa: 12.4
